Reference: PubChem BioAssay AID288 (DTP/NCI, 2004)
Values joined by “and” are separate entries in the source; they are usually repeats but may differ in a detail not shown here. Equal values may be shown once. Records with an inconclusive call do not appear.

System: BDF1 mice, M5076 sarcoma s.c., survival/tumor T/C
Assay: NCI In Vivo Anticancer Drug Screen. Data for tumor model Sarcoma M5076 (subcutaneous) in B6D2F1 (BDF1) mice
Procedure: The antitumor activity of compounds was measured in mice bearing transplantable tumors. Survival or tumor size were measured and the results are expressed as the measurement made in the treated group (T) divided by the measurement made in the vehicle treated control group (C). The tumor model used in this assay is Sarcoma M5076 (subcutaneous) in B6D2F1 (BDF1) mice

[1] = endpoint: median survival time, dose: 50.0 mg/kg/injection, schedule: Q01DX009 (ip), vehicle: saline with Tween-80, higher = longer survival
[2] = endpoint: median survival time, dose: 100.0 mg/kg/injection, schedule: Q01DX009 (ip), vehicle: saline with Tween-80, higher = longer survival
[3] = endpoint: median survival time, dose: 200.0 mg/kg/injection, schedule: Q01DX009 (ip), vehicle: saline with Tween-80, higher = longer survival
[4] = endpoint: median tumor weight (est.), dose: 50.0 mg/kg/injection, schedule: Q01DX009 (ip), vehicle: saline with Tween-80, higher = larger tumour
[5] = endpoint: median tumor weight (est.), dose: 100.0 mg/kg/injection, schedule: Q01DX009 (ip), vehicle: saline with Tween-80, higher = larger tumour
[6] = endpoint: median tumor weight (est.), dose: 200.0 mg/kg/injection, schedule: Q01DX009 (ip), vehicle: saline with Tween-80, higher = larger tumour

For `NC(=O)c1csc(C2OC(CO)C(O)C2O)n1` (stereo not given), the T/C (endpoint: median survival time, dose: 9.38 mg/kg/injection, schedule: Q01DX009 (ip), vehicle: saline, higher = longer survival) was 103 % of control, the T/C (endpoint: median survival time, dose: 18.8 mg/kg/injection, schedule: Q01DX009 (ip), vehicle: saline, higher = longer survival) was 97 % of control and the T/C (endpoint: median survival time, dose: 37.5 mg/kg/injection, schedule: Q01DX009 (ip), vehicle: saline, higher = longer survival) was 93 % of control. The T/C (endpoint: median survival time, dose: 75.0 mg/kg/injection, schedule: Q01DX009 (ip), vehicle: saline, higher = longer survival) was 94 % of control, the T/C (endpoint: median survival time, dose: 150.0 mg/kg/injection, schedule: Q01DX009 (ip), vehicle: saline, higher = longer survival) was 97 % of control and the T/C (endpoint: median survival time, dose: 300.0 mg/kg/injection, schedule: Q01DX009 (ip), vehicle: saline, higher = longer survival) was 97 % of control. For the same compound, the T/C (endpoint: median survival time, dose: 600.0 mg/kg/injection, schedule: Q01DX009 (ip), vehicle: saline, higher = longer survival) was 101 % of control, the T/C (endpoint: median tumor weight (est.), dose: 9.38 mg/kg/injection, schedule: Q01DX009 (ip), vehicle: saline, higher = larger tumour) was 95 % of control and the T/C (endpoint: median tumor weight (est.), dose: 18.8 mg/kg/injection, schedule: Q01DX009 (ip), vehicle: saline, higher = larger tumour) was 95 % of control. The T/C (endpoint: median tumor weight (est.), dose: 75.0 mg/kg/injection, schedule: Q01DX009 (ip), vehicle: saline, higher = larger tumour) was 100 % of control, the T/C (endpoint: median tumor weight (est.), dose: 150.0 mg/kg/injection, schedule: Q01DX009 (ip), vehicle: saline, higher = larger tumour) was 104 % of control and the T/C (endpoint: median tumor weight (est.), dose: 300.0 mg/kg/injection, schedule: Q01DX009 (ip), vehicle: saline, higher = larger tumour) was 91 % of control.
In the case of `O=[N+]([O-])c1ccc(CSc2ncnc3c2ncn3C2OC(COP(=O)(O)O)C(O)C2O)cc1` (stereo not given), the T/C (endpoint: median survival time, dose: 64.8 mg/kg/injection, schedule: Q01DX005 (ip), vehicle: saline, higher = longer survival) is reported as 115 % of control and 118 % of control.
For `Nc1nc(N)c2c(ccc3nccc32)[nH]1`, the T/C (endpoint: median survival time, dose: 12.5 mg/kg/injection, schedule: Q01DX009 (ip), vehicle: saline with Tween-80, higher = longer survival) was 86 % of control, the T/C (endpoint: median survival time, dose: 25.0 mg/kg/injection, schedule: Q01DX009 (ip), vehicle: saline with Tween-80, higher = longer survival) was 92 % of control and the T/C (endpoint: median tumor weight (est.), dose: 12.5 mg/kg/injection, schedule: Q01DX009 (ip), vehicle: saline with Tween-80, higher = larger tumour) was 80 % of control. For the same compound, the T/C (endpoint: median tumor weight (est.), dose: 25.0 mg/kg/injection, schedule: Q01DX009 (ip), vehicle: saline with Tween-80, higher = larger tumour) was 62 % of control.
`COC1CC23OC2(C1)C1C=CC3N(C(=O)OCC(Cl)(Cl)Cl)N1C(=O)OCC(Cl)(Cl)Cl` (stereo not given) was tested, and the T/C [1] was 100 % of control and 94 % of control, the T/C [2] was 102 % of control and 89 % of control and the T/C [3] was 98 % of control and 110 % of control. The T/C [4] was 111 % of control and 93 % of control, the T/C [5] was 66 % of control and 77 % of control and the T/C [6] was 90 % of control.
`COc1cc(/C=C2\SC(=S)N(c3ccc(Cl)c(Cl)c3)C2=O)ccc1O` was tested, and the T/C [1] was 90 % of control, the T/C [2] was 94 % of control and the T/C [4] was 105 % of control. The T/C [5] was 117 % of control.
For `Nc1nc(SCC(=O)O)[nH]c(=O)c1N`, the T/C [1] was 93 % of control, the T/C [2] was 105 % of control and the T/C [3] was 110 % of control.
With `CN(Cc1cnc2nc(N)nc(N)c2n1)c1ccc(C(=O)N[C@@H](CCC(=O)O)C(=O)O)cc1` the T/C (endpoint: median survival time, dose: 0.5 mg/kg/injection, schedule: Q04DX006 (ip), vehicle: saline, higher = longer survival) was 97 % of control, the T/C (endpoint: median survival time, dose: 1.0 mg/kg/injection, schedule: Q04DX006 (ip), vehicle: saline, higher = longer survival) was 106 % of control and the T/C (endpoint: median survival time, dose: 2.0 mg/kg/injection, schedule: Q04DX006 (ip), vehicle: saline, higher = longer survival) was 97 % of control. For the same compound, the T/C (endpoint: median survival time, dose: 4.0 mg/kg/injection, schedule: Q04DX006 (ip), vehicle: saline, higher = longer survival) was 108 % of control.
For `CCC/C=C/C=C/C(=O)OC1/C(=C/C(=O)OC)CC2CC(C(C)O)OC(=O)CC(O)CC3CC(OC(C)=O)C(C)(C)C(O)(CC4C/C(=C/C(=O)OC)CC(/C=C/C(C)(C)C1(O)O2)O4)O3` (stereo not given), the T/C (endpoint: median survival time, dose: 5.0 micrograms/kg/injection, schedule: Q01DX009 (ip), vehicle: saline + Tween-80 + alcohol, higher = longer survival) was 100 % of control, the T/C (endpoint: median survival time, dose: 5.0 micrograms/kg/injection, schedule: Q01DX009 (ip), vehicle: saline + alcohol, higher = longer survival) was 106 % of control and the T/C (endpoint: median survival time, dose: 10.0 micrograms/kg/injection, schedule: Q01DX009 (ip), vehicle: saline + Tween-80 + alcohol, higher = longer survival) was 97 % of control. For the same compound, the T/C (endpoint: median survival time, dose: 10.0 micrograms/kg/injection, schedule: Q01DX009 (ip), vehicle: saline + alcohol, higher = longer survival) was 96 % of control, the T/C (endpoint: median survival time, dose: 20.0 micrograms/kg/injection, schedule: Q01DX009 (ip), vehicle: saline + Tween-80 + alcohol, higher = longer survival) was 111 % of control and the T/C (endpoint: median survival time, dose: 20.0 micrograms/kg/injection, schedule: Q01DX009 (ip), vehicle: saline + alcohol, higher = longer survival) was 111 % of control. The T/C (endpoint: median survival time, dose: 80.0 micrograms/kg/injection, schedule: Q01DX009 (ip), vehicle: saline + Tween-80 + alcohol, higher = longer survival) was 103 % of control, the T/C (endpoint: median survival time, dose: 80.0 micrograms/kg/injection, schedule: Q01DX009 (ip), vehicle: saline + alcohol, higher = longer survival) was 103 % of control and the T/C (endpoint: median tumor weight (est.), dose: 5.0 micrograms/kg/injection, schedule: Q01DX009 (ip), vehicle: saline + Tween-80 + alcohol, higher = larger tumour) was 102 % of control. The T/C (endpoint: median tumor weight (est.), dose: 5.0 micrograms/kg/injection, schedule: Q01DX009 (ip), vehicle: saline + alcohol, higher = larger tumour) was 198 % of control, the T/C (endpoint: median tumor weight (est.), dose: 10.0 micrograms/kg/injection, schedule: Q01DX009 (ip), vehicle: saline + Tween-80 + alcohol, higher = larger tumour) was 89 % of control and the T/C (endpoint: median tumor weight (est.), dose: 10.0 micrograms/kg/injection, schedule: Q01DX009 (ip), vehicle: saline + alcohol, higher = larger tumour) was 107 % of control. The T/C (endpoint: median tumor weight (est.), dose: 20.0 micrograms/kg/injection, schedule: Q01DX009 (ip), vehicle: saline + Tween-80 + alcohol, higher = larger tumour) was 83 % of control, the T/C (endpoint: median tumor weight (est.), dose: 20.0 micrograms/kg/injection, schedule: Q01DX009 (ip), vehicle: saline + alcohol, higher = larger tumour) was 10 % of control and the T/C (endpoint: median tumor weight (est.), dose: 40.0 micrograms/kg/injection, schedule: Q01DX009 (ip), vehicle: saline + Tween-80 + alcohol, higher = larger tumour) was 11 % of control.
For `CCN1Cc2c(/C=C/c3ccccc3)nc3ccc(OC)cc3c2N(c2cccc(Cl)c2)C1`, the T/C [1] was 99 % of control, the T/C [2] was 99 % of control and the T/C [3] was 105 % of control. The T/C [4] was 60 % of control, the T/C [5] was 105 % of control and the T/C [6] was 73 % of control.
`CN(C)c1nc(N(C)C)nc(N(C)C)n1` was tested, and the T/C (endpoint: median survival time, dose: 44.0 mg/kg/injection, schedule: Q04DX006 (ip), vehicle: saline with Tween-80, higher = longer survival) was 97 % of control, the T/C (endpoint: median survival time, dose: 88.0 mg/kg/injection, schedule: Q04DX006 (ip), vehicle: saline with Tween-80, higher = longer survival) was 108 % of control and the T/C (endpoint: median survival time, dose: 176.0 mg/kg/injection, schedule: Q02DX033 (ip), vehicle: saline with Tween-80, higher = longer survival) was 189 % of control. The T/C (endpoint: median survival time, dose: 176.0 mg/kg/injection, schedule: Q04DX006 (ip), vehicle: saline with Tween-80, higher = longer survival) was 120 % of control, the T/C (endpoint: median survival time, dose: 352.0 mg/kg/injection, schedule: Q04DX006 (ip), vehicle: saline with Tween-80, higher = longer survival) was 112 % of control and the T/C (endpoint: median tumor weight (est.), dose: 30.0 mg/kg/injection, schedule: Q02DX011 (ip), vehicle: saline with Tween-80, higher = larger tumour) was 110 % of control. For the same compound, the T/C (endpoint: median tumor weight (est.), dose: 60.0 mg/kg/injection, schedule: Q02DX011 (ip), vehicle: saline with Tween-80, higher = larger tumour) was 54 % of control and the T/C (endpoint: median tumor weight (est.), dose: 120.0 mg/kg/injection, schedule: Q02DX011 (ip), vehicle: saline with Tween-80, higher = larger tumour) was 17 % of control.
`C[C@@]12C(=O)OC(=O)[C@]1(C)[C@H]1CC[C@@H]2O1` was tested, and the T/C (endpoint: median survival time, dose: 0.1 mg/kg/injection, schedule: Q01DX009 (ip), vehicle: acetone, higher = longer survival) was 94 % of control, the T/C (endpoint: median survival time, dose: 0.2 mg/kg/injection, schedule: Q01DX009 (ip), vehicle: acetone, higher = longer survival) was 106 % of control and the T/C (endpoint: median survival time, dose: 0.4 mg/kg/injection, schedule: Q01DX009 (ip), vehicle: acetone, higher = longer survival) was 101 % of control. The T/C (endpoint: median survival time, dose: 0.8 mg/kg/injection, schedule: Q01DX009 (ip), vehicle: acetone, higher = longer survival) was 89 % of control, the T/C (endpoint: median tumor weight (est.), dose: 0.1 mg/kg/injection, schedule: Q01DX009 (ip), vehicle: acetone, higher = larger tumour) was 117 % of control and the T/C (endpoint: median tumor weight (est.), dose: 0.2 mg/kg/injection, schedule: Q01DX009 (ip), vehicle: acetone, higher = larger tumour) was 64 % of control. The T/C (endpoint: median tumor weight (est.), dose: 0.4 mg/kg/injection, schedule: Q01DX009 (ip), vehicle: acetone, higher = larger tumour) was 109 % of control and the T/C (endpoint: median tumor weight (est.), dose: 0.8 mg/kg/injection, schedule: Q01DX009 (ip), vehicle: acetone, higher = larger tumour) was 90 % of control.
With `Nc1ccn(C2OC3COC2C3O)c(=O)n1` (stereo not given) the T/C (endpoint: median survival time, dose: 50.0 mg/kg/injection, schedule: Q01DX009 (ip), vehicle: saline, higher = longer survival) was 89 % of control, the T/C (endpoint: median survival time, dose: 100.0 mg/kg/injection, schedule: Q01DX009 (ip), vehicle: saline, higher = longer survival) was 110 % of control and the T/C (endpoint: median survival time, dose: 200.0 mg/kg/injection, schedule: Q01DX009 (ip), vehicle: saline, higher = longer survival) was 102 % of control. The T/C (endpoint: median tumor weight (est.), dose: 100.0 mg/kg/injection, schedule: Q01DX009 (ip), vehicle: saline, higher = larger tumour) was 65 % of control and the T/C (endpoint: median tumor weight (est.), dose: 200.0 mg/kg/injection, schedule: Q01DX009 (ip), vehicle: saline, higher = larger tumour) was 92 % of control.
For `c1cc2n(n1)CCN2`, the T/C (endpoint: mean tumor weight, dose: 6.25 mg/kg/injection, schedule: Q02DX011 (ip), vehicle: saline, higher = larger tumour) was 122 % of control, the T/C (endpoint: mean tumor weight, dose: 12.5 mg/kg/injection, schedule: Q02DX011 (ip), vehicle: saline, higher = larger tumour) was 85 % of control and the T/C (endpoint: mean tumor weight, dose: 25.0 mg/kg/injection, schedule: Q02DX011 (ip), vehicle: saline, higher = larger tumour) was 103 % of control. The T/C (endpoint: median tumor weight (est.), dose: 6.25 mg/kg/injection, schedule: Q02DX011 (ip), vehicle: saline, higher = larger tumour) was 161 % of control.
